# Measurements taken from ChEMBL document CHEMBL1201862, “PubChem BioAssay data set” (2004).
#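 Following 48 hours of exposure in 96-well plates, responses at five concentrations were used to interpolate endpoints linearly. GI50 marks 50% less growth.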 Activity calls are given as the source filed them. Rule as the data show it: active = GI50 up to about 1.1 µM and inactive = higher.
# Tests used:
# Assay in all cases: NCI anticancer screen, dose series, 48 h
# OVCAR-4 = system: OVCAR-4
# RXF 393 = system: RXF 393
# NCI/ADR-RES = system: NCI/ADR-RES
# Malme-3M = system: Malme-3M
# 786-0 = system: 786-0
# SF-295 = system: SF-295
# OVCAR-3 = system: OVCAR-3
# LOX IMVI = system: LOX IMVI
# RPMI-8226 = system: RPMI-8226
# HCT-15 = system: HCT-15
# UACC-257 = system: UACC-257
# MDA-MB-231 = system: MDA-MB-231
# MOLT-4 = system: MOLT-4
# U-251 = system: U-251
# SK-MEL-28 = system: SK-MEL-28
# K562 = system: K562
# NCI-H226 = system: NCI-H226
# OVCAR-8 = system: OVCAR-8
# T47D = system: T47D
# OVCAR-5 = system: OVCAR-5
SMILES,GI50 (OVCAR-4),GI50 (RXF 393),GI50 (NCI/ADR-RES),GI50 (Malme-3M),GI50 (786-0),GI50 (SF-295),GI50 (OVCAR-3),GI50 (LOX IMVI),GI50 (RPMI-8226),GI50 (HCT-15),GI50 (UACC-257),GI50 (MDA-MB-231),GI50 (MOLT-4),GI50 (U-251),GI50 (SK-MEL-28),GI50 (K562),GI50 (NCI-H226),GI50 (OVCAR-8),GI50 (T47D),GI50 (OVCAR-5)
Nc1nc(N)c(N=O)c(Nc2ccc(O)cc2)n1,> 48.8 µM (inactive),93.3 µM (inactive),1.58 µM (inactive),33.4 µM (inactive),> 55.7 µM (inactive),> 44.7 µM (inactive),47.2 µM (inactive),30.3 µM (inactive),> 44.4 µM (inactive),> 57.3 µM,> 66.8 µM (inactive),> 58.3 µM (inactive),16.1 µM (inactive),> 52 µM (inactive),11.5 µM (inactive),> 45.6 µM (inactive),23.7 µM (inactive),32 µM (inactive),14.9 µM (inactive),
O=c1oc2ccccc2c(Nc2ccc3c(c2)Sc2ccccc2O3)c1[N+](=O)[O-],25 µM (inactive),23.4 µM (inactive),26.9 µM (inactive),21.2 µM (inactive),22.7 µM (inactive),22.1 µM (inactive),17.1 µM (inactive),33.3 µM (inactive),13.7 µM (inactive),25.1 µM,18.5 µM (inactive),21 µM (inactive),,18.5 µM (inactive),16.2 µM (inactive),20 µM (inactive),23.2 µM (inactive),30.8 µM (inactive),20.8 µM (inactive),34.6 µM (inactive)
Oc1ccccc1C1=NOC(c2ccc(C(F)(F)F)cc2)C1 (stereo not given),> 50 µM (inactive),> 50 µM (inactive),> 50 µM (inactive),> 50 µM (inactive),> 50 µM (inactive),> 50 µM (inactive),> 50 µM (inactive),> 50 µM (inactive),> 50 µM (inactive),,> 50 µM (inactive),> 41.6 µM (inactive),> 50 µM (inactive),> 50 µM (inactive),> 50 µM (inactive),> 50 µM (inactive),> 50 µM (inactive),> 50 µM (inactive),0.92 µM (active),> 50 µM (inactive)
CC(C)=NOC(=O)OC[C@H]1O[C@@H](n2cnc3c(N)ncnc32)C(O)C1O (stereo not given in full),> 100 µM (inactive),> 100 µM (inactive),> 100 µM (inactive),> 100 µM (inactive),70 µM (inactive),> 100 µM (inactive),> 100 µM (inactive),44.9 µM (inactive),52 µM (inactive),72.1 µM,,> 100 µM (inactive),> 100 µM (inactive),> 100 µM (inactive),> 100 µM (inactive),30.1 µM (inactive),> 100 µM (inactive),> 100 µM (inactive),> 100 µM (inactive),> 100 µM (inactive)
O=Cc1coc2ccccc2c1=O,13.8 µM (inactive),18 µM (inactive),16 µM (inactive),9.68 µM (inactive),18.1 µM (inactive),17.9 µM (inactive),32.1 µM (inactive),16.9 µM (inactive),15.3 µM (inactive),14.3 µM,18.7 µM (inactive),18.5 µM (inactive),24.9 µM (inactive),21.3 µM (inactive),,19.3 µM (inactive),37.7 µM (inactive),15 µM (inactive),48.1 µM (inactive),23.1 µM (inactive)
